Earlier results as cited in US12653912B2 (SHENZHEN CHINA RESOURCES JIUCHUANG MEDICAL AND …, priority 2020, dated 2026).

Conditions: 75 mg/m^2, intravenous bolus injecting

For O=C1c2c(O)ccc(O)c2C(=O)c2c(NCCNCCO)ccc(NCCNCCO)c21 [mitoxantrone], the “AUC at the maximum tolerated total dosage” value is listed as 560 to 1700 ng·h/mL.
